Results published in patent US8247211B2, “Glycopeptide antibiotics” (American Cyanamid Company, priority 2001, dated 2012).

How the values were obtained:
Experiment in all cases: In vitro antibacterial evaluation: minimum inhibitory concentration (MIC), broth dilution method
Type in all cases: cell-based
Escherichia coli = conditions: 18 hours at 35° C.
Outline: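 Using Muller-Hinton II […] and an inoculum of 5×10^5 CFU/mL, antibiotic dilutions from 64 down to 0.06 μg/mL were tested following NCCLS M7-A2. The MIC is the lowest concentration inhibiting growth, including in methicillin-, penicillin- or vancomycin-resistant clinical isolates.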

Enterococcus sp. = conditions: 18 hours at 35° C.
Outline: (§1)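 Values are minimum inhibitory concentrations, meaning the smallest antibiotic concentration that stops growth of the organism. They come from broth dilution in Muller-Hinton II […] per NCCLS guidance (M7-A2), using 5×10^5 CFU/mL and concentrations from 64 to 0.06 μg/mL.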

Streptococcus sp. = conditions: 18 hours at 35° C.
Outline: as §1

Staphylococcus sp. = test system: Staphylococcus sp.
Outline: as §1

[1] = broth dilution, inoculum 5×10^5 CFU/mL

CC(c1ccccc1)C1NC(=O)CNC(=O)C(CO)NC(=O)C(C(O)C2CNC(=N)N2C2OC(CO)C(O)C(O)C2O)NC(=O)C(C(O)C2CNC(=N)N2)NC(=O)C(Cc2ccc(OC3OC(CO)C(OC4OC5COC(c6ccc(C(=O)c7ccc(I)cc7)cc6)OC5C(O)C4O)C(O)C3O)cc2)NC1=O (stereo not shown) [Example 186]
1 µg/mL: MIC Enterococcus faecalis (GC 6189) (Enterococcus sp.; Enterococcus faecalis (GC 6189)) | MIC Enterococcus faecalis (GC 6189) (Enterococcus sp.; [1]) | MIC Staphylococcus aureus (GC 4542) (Staphylococcus sp.; strain GC 4542) | MIC Staphylococcus haemolyticus (GC 4546) (Staphylococcus sp.; strain GC 4546) | MIC Coagulase Negative Staphylococcus (GC 4548) (Staphylococcus sp.; strain GC 4548) | MIC Coagulase Negative Staphylococcus (GC 4549) (Staphylococcus sp.; strain GC 4549)
0.25 µg/mL: MIC Streptococcus pyogenes (GC 4563) (Streptococcus sp.; Streptococcus pyogenes (GC 4563)) | MIC Streptococcus pyogenes (GC 4563) (Streptococcus sp.; [1])
2 µg/mL: MIC Enterococcus avium (GC 4558) (Enterococcus sp.; Enterococcus avium (GC 4558)) | MIC Enterococcus faecalis (ATCC 29212) (Enterococcus sp.; Enterococcus faecalis (ATCC 29212)) | MIC Enterococcus faecalis (GC 2242) (Enterococcus sp.; Enterococcus faecalis (GC 2242)) | MIC Enterococcus faecalis (GC 2691) (Enterococcus sp.; Enterococcus faecalis (GC 2691)) | MIC Enterococcus faecalis (GC 3059) (Enterococcus sp.; Enterococcus faecalis (GC 3059)) | MIC Enterococcus faecalis (GC 4552) (Enterococcus sp.; Enterococcus faecalis (GC 4552)) | MIC Enterococcus faecalis (GC 4553) (Enterococcus sp.; Enterococcus faecalis (GC 4553)) | MIC Enterococcus faecalis (GC 4554) (Enterococcus sp.; Enterococcus faecalis (GC 4554)) | MIC Enterococcus faecium (GC 2243) (Enterococcus sp.; Enterococcus faecium (GC 2243)) | MIC Enterococcus faecium (GC 4556) (Enterococcus sp.; Enterococcus faecium (GC 4556)) | MIC Enterococcus faecium (GC 4557) (Enterococcus sp.; Enterococcus faecium (GC 4557)) | MIC Enterococcus avium (GC 4558) (Enterococcus sp.; [1]) | MIC Enterococcus faecalis (ATCC 29212) (Enterococcus sp.; [1]) | MIC Enterococcus faecalis (GC 2242) (Enterococcus sp.; [1]) | MIC Enterococcus faecalis (GC 2691) (Enterococcus sp.; [1]) | MIC Enterococcus faecalis (GC 3059) (Enterococcus sp.; [1]) | MIC Enterococcus faecalis (GC 4552) (Enterococcus sp.; [1]) | MIC Enterococcus faecalis (GC 4553) (Enterococcus sp.; [1]) | MIC Enterococcus faecalis (GC 4554) (Enterococcus sp.; [1]) | MIC Enterococcus faecium (GC 2243) (Enterococcus sp.; [1]) | MIC Enterococcus faecium (GC 4556) (Enterococcus sp.; [1]) | MIC Enterococcus faecium (GC 4557) (Enterococcus sp.; [1]) | MIC Staphylococcus aureus (ATCC 29213) (Staphylococcus sp.; strain ATCC 29213) | MIC Staphylococcus aureus (GC 1131) (Staphylococcus sp.; strain GC 1131) | MIC Staphylococcus aureus (GC 3051) (Staphylococcus sp.; strain GC 3051) | MIC Staphylococcus aureus (GC 3053) (Staphylococcus sp.; strain GC 3053) | MIC Staphylococcus aureus (GC 4541) (Staphylococcus sp.; strain GC 4541) | MIC Staphylococcus aureus-SMITH (GC 4543) (Staphylococcus sp.; strain GC 4543) | MIC Staphylococcus aureus (GC 4544) (Staphylococcus sp.; strain GC 4544) | MIC Staphylococcus aureus (GC 4545) (Staphylococcus sp.; strain GC 4545) | MIC Coagulase Negative Staphylococcus (GC 4547) (Staphylococcus sp.; strain GC 4547) | MIC Coagulase Negative Staphylococcus (GC 4551) (Staphylococcus sp.; strain GC 4551)
<0.06 µg/mL: MIC Streptococcus agalactiae (GC 4564) (Streptococcus sp.; Streptococcus agalactiae (GC 4564)) | MIC Streptococcus pneumoniae (ATCC 6301) (Streptococcus sp.; Streptococcus pneumoniae (ATCC 6301)) | MIC Streptococcus pneumoniae (GC 1894) (Streptococcus sp.; Streptococcus pneumoniae (GC 1894)) | MIC Streptococcus pneumoniae (GC 4565) (Streptococcus sp.; Streptococcus pneumoniae (GC 4565)) | MIC Streptococcus agalactiae (GC 4564) (Streptococcus sp.; [1]) | MIC Streptococcus pneumoniae (ATCC 6301) (Streptococcus sp.; [1]) | MIC Streptococcus pneumoniae (GC 1894) (Streptococcus sp.; [1]) | MIC Streptococcus pneumoniae (GC 4565) (Streptococcus sp.; [1])
64 µg/mL: MIC Escherichia coli (ATCC 25922) (Escherichia coli; Escherichia coli (ATCC 25922)) | MIC Escherichia coli (GC 4559) (Escherichia coli; Escherichia coli (GC 4559))
0.5 µg/mL: MIC Coagulase Negative Staphylococcus (GC 6257) (Staphylococcus sp.; strain GC 6257)
4 µg/mL: MIC Escherichia coli (GC 4560) (Escherichia coli; Escherichia coli (GC 4560))
